Conditions: 283.15 K, Liquid, Vibrating tube method

CCCCCCCCCC [decane]
Conditions | mass density [kg/m3]
18830 kPa | 750.4
18862 kPa | 750.3
18886 kPa | 750.4
18919 kPa | 750.4
18953 kPa | 750.3
18975 kPa | 750.3
19001 kPa | 750.4
19028 kPa | 750.5
19063 kPa | 750.5
19088 kPa | 750.4
19116 kPa | 750.6
19142 kPa | 750.5
19169 kPa | 750.6
19195 kPa | 750.6
19222 kPa | 750.6
19245 kPa | 750.6
19296 kPa | 750.6
19437 kPa | 750.6
19472 kPa | 750.7
19500 kPa | 750.8
19524 kPa | 750.7
19561 kPa | 750.8
19589 kPa | 750.8
19627 kPa | 750.9
19660 kPa | 750.9
19683 kPa | 750.9
19715 kPa | 750.9
19742 kPa | 750.9
19762 kPa | 750.9
19786 kPa | 750.9
19807 kPa | 751
19842 kPa | 751
19870 kPa | 751
19891 kPa | 751
19925 kPa | 751
19953 kPa | 751
19975 kPa | 751
19996 kPa | 751
20017 kPa | 751
20039 kPa | 751.1
20064 kPa | 751.2
20082 kPa | 751.2
20101 kPa | 751.1
20121 kPa | 751
20149 kPa | 751.1
20174 kPa | 751.2
20196 kPa | 751.3
20219 kPa | 751.1
20248 kPa | 751.3
20268 kPa | 751.2
20291 kPa | 751.3
20310 kPa | 751.2
20345 kPa | 751.3
20368 kPa | 751.2
20387 kPa | 751.4
20410 kPa | 751.3
20429 kPa | 751.3
20462 kPa | 751.3
20488 kPa | 751.4
20508 kPa | 751.3
20558 kPa | 751.3
20627 kPa | 751.4
20648 kPa | 751.6
20677 kPa | 751.4
20697 kPa | 751.6
20731 kPa | 751.6
20762 kPa | 751.6
20782 kPa | 751.6
20813 kPa | 751.6
20841 kPa | 751.6
20865 kPa | 751.6
20894 kPa | 751.6
20922 kPa | 751.6
20942 kPa | 751.6
20966 kPa | 751.5
20994 kPa | 751.7
21015 kPa | 751.7
21043 kPa | 751.8
21074 kPa | 751.8
21095 kPa | 751.8
21127 kPa | 751.8
21151 kPa | 751.8
21173 kPa | 751.8
21194 kPa | 751.8
21211 kPa | 751.9
21240 kPa | 752
21271 kPa | 751.9
21296 kPa | 751.8
21321 kPa | 751.9
21353 kPa | 751.9
21370 kPa | 751.9
21403 kPa | 751.9
21752 kPa | 752.1
21805 kPa | 752.2
21889 kPa | 752.2
21915 kPa | 752.2
21938 kPa | 752.3
21972 kPa | 752.3
22007 kPa | 752.3
22031 kPa | 752.3
22058 kPa | 752.3
22089 kPa | 752.3
22113 kPa | 752.4
22147 kPa | 752.4
22178 kPa | 752.3
22201 kPa | 752.4
22236 kPa | 752.4
22272 kPa | 752.5
22295 kPa | 752.5
22335 kPa | 752.4
22359 kPa | 752.5
22386 kPa | 752.6
22411 kPa | 752.6
22446 kPa | 752.5
22479 kPa | 752.6
22503 kPa | 752.5
22527 kPa | 752.6
22564 kPa | 752.6
22597 kPa | 752.6
22622 kPa | 752.7
22663 kPa | 752.6
22697 kPa | 752.7
22722 kPa | 752.7
22759 kPa | 752.7
22793 kPa | 752.8
22818 kPa | 752.9
22847 kPa | 752.9
22881 kPa | 752.9
22919 kPa | 752.9
23017 kPa | 752.9
23052 kPa | 752.9
23107 kPa | 753
23142 kPa | 753
23169 kPa | 752.9
23192 kPa | 753.1
23212 kPa | 753.1
